Reference: patent US20260250289A1, “BICYCLIC HETEROCYCLES AND THEIR USE AS WRN INHIBITORS” (Novartis AG, priority 2022, published 2026)

Experiments:
SW48 cells = assay: Proliferation assay SW48 (CellTiterGlo); type: cell-based; settings: Homo sapiens, SW48, 96 h, SW48 colon carcinoma cells, 96 hours, CellTiterGlo; geometric mean of at least 2; read-out: Proliferation Assay SW48 GI50
In short: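 SW48 cells, 2,000/well, treated after overnight seeding with eight 3-fold compound dilutions (0.1% DMSO) for 96 hours at 37° C. Viability read as ATP by CellTiterGlo luminescence, normalised to a day-0 plate and vehicle to give % growth; GI50 is geometric mean of ≥2 independent replicates.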

DLD1-WRN-KO cells = assay: Proliferation assay DLD1-WRN-KO (CellTiterGlo, off-target effects); type: cell-based; settings: 96 hours, geometric mean of at least 2
In short: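 DLD1 cells with CRISPR knockout of WRN were exposed overnight-seeded to eight 3-fold compound dilutions (0.1% DMSO) for 96 h at 37 °C. Viability was read as ATP by CellTiterGlo luminescence against a day-0 plate, giving GI50 and residual viability at top concentration.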

[1] = molecular target: T1, WRN helicase (aa N517-P1238) (Homo sapiens, UniProt Q14191); assay: WRN ATPase assay (DNA dependent ATP hydrolysis, ADP-Glo); type: biochemical; settings: 3 hours pre-incubation, 300 micromolar ATP, FLAP26 DNA; geometric mean of at least 2
T1 construct: The core helicase motif of the WRN protein (aa N517-P1238) was produced for this assay; His (N); ZZ (N); 3C protease cleavage site (N); made in house; host or cells: Sf21 insect cells (baculovirus; virus and BIICs made in SF9)
T1 sequence (Q14191 517-1238): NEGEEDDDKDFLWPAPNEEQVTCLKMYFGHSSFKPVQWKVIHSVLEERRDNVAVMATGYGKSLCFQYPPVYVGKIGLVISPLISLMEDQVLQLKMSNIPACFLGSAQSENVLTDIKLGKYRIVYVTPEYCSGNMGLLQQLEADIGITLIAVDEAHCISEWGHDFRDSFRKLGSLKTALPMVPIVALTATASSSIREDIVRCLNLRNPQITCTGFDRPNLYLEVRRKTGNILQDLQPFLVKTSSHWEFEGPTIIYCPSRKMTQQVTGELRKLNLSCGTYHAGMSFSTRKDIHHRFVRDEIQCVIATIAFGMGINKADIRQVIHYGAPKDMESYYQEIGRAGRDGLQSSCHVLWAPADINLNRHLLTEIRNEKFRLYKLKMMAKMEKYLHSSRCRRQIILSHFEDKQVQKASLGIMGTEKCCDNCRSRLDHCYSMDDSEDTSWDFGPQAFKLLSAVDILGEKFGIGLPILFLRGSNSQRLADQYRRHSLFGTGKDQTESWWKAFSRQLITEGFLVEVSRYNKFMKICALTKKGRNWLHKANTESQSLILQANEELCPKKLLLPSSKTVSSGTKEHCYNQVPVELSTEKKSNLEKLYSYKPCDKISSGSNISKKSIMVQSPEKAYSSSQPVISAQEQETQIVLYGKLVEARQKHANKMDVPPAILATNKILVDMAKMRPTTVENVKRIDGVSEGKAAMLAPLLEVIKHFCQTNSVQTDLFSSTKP
In short: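 DNA-dependent ATP hydrolysis detected as ADP by ADP-Glo luminescence, using 300 μM ATP, 0.2 nM FLAP26 substrate and 10 nM WRN aa N517-P1238 (Tris pH 7.5 buffer, 2 mM MgCl2, 50 mM NaCl). IC50s fitted from normalized duplicate half-log dilutions; reported as geometric means of at least 2 replicates.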

SMILES	GI50 (SW48 cells) [µM]	GI50 (DLD1-WRN-KO cells) [µM]	IC50 [1] [µM]
CC(=O)N1CCN(c2c(C)n(CC(=O)Nc3ccc(C(F)(F)F)cc3)c3nc(N4CCC5(CCCO5)CC4)nn3c2=O)CC1 [Example 122, 2-(6-(4-acetylpiperazin-1-yl)-5-methyl-7-oxo-2-(1-oxa-8-azaspiro[4.5]decan-8-yl)-[1,2,4]triazolo[1,5-a]pyrimidin-4(7H)-yl)-N-(4-(trifluoromethyl)phenyl)acetamide]	5	> 10	0.7
COC1CCN(c2nc3n(CC(=O)Nc4ccc(C(F)(F)F)cc4)c(C)c(N4CCN(C(C)=O)CC4)c(=O)n3n2)CC1 [Example 123, 2-(6-(4-acetylpiperazin-1-yl)-2-(4-methoxypiperidin-1-yl)-5-methyl-7-oxo-[1,2,4]triazolo[1,5-a]pyrimidin-4(7H)-yl)-N-(4-(trifluoromethyl)phenyl)acetamide]	9	> 10	0.7
CC(=O)N1CCN(c2c(C)n(CC(=O)Nc3ccc(C(F)(F)F)cc3)c3nc(N4CC5CC5C4)nn3c2=O)CC1 (stereo not drawn) [Example 125, 2-(6-(4-acetylpiperazin-1-yl)-2-(3-azabicyclo[3.1.0]hexan-3-yl)-5-methyl-7-oxo-[1,2,4]triazolo[1,5-a]pyrimidin-4(7H)-yl)-N-(4-(trifluoromethyl)phenyl)acetamide]	3	> 10	0.8
CC(=O)N1CCN(c2c(C)n(CC(=O)Nc3ccc(C(F)(F)F)cc3)c3nc(-c4cnn(C(F)F)c4)nn3c2=O)CC1 [Example 128, 2-(6-(4-acetylpiperazin-1-yl)-2-(1-(difluoromethyl)-1H-pyrazol-4-yl)-5-methyl-7-oxo-[1,2,4]triazolo[1,5-a]pyrimidin-4(7H)-yl)-N-(4-(trifluoromethyl)phenyl)acetamide]	7	> 10	0.8
CC(=O)N1CCN(c2c(C)n(CC(=O)Nc3ccc(C(F)(F)F)cc3)c3nc(-c4ccccc4)nn3c2=O)CC1 [Example 130, 2-(6-(4-acetylpiperazin-1-yl)-5-methyl-7-oxo-2-phenyl-[1,2,4]triazolo[1,5-a]pyrimidin-4(7H)-yl)-N-(4-(trifluoromethyl)phenyl)acetamide]	2	7	0.9
CON1CCN(c2nc3n(CC(=O)Nc4ccc(C(F)(F)F)cc4)c(C)c(N4CCN(C(C)=O)CC4)c(=O)n3n2)CC1 [Example 132, 2-(6-(4-acetylpiperazin-1-yl)-2-(4-methoxypiperazin-1-yl)-5-methyl-7-oxo-[1,2,4]triazolo[1,5-a]pyrimidin-4(7H)-yl)-N-(4-(trifluoromethyl)phenyl)acetamide]	10	> 10	2
CC(=O)N1CCN(c2c(C)n(CC(=O)Nc3ccc(C(F)(F)F)cc3)c3nc(-c4cnc(C)o4)nn3c2=O)CC1 [Example 135, 2-(6-(4-acetylpiperazin-1-yl)-5-methyl-2-(2-methyloxazol-5-yl)-7-oxo-[1,2,4]triazolo[1,5-a]pyrimidin-4(7H)-yl)-N-(4-(trifluoromethyl)phenyl)acetamide]	> 10	> 10	0.4
Cc1c(C2CCN(C(=O)c3c(F)ccc(F)c3O)CC2)c(=O)n2nc(C3=CCOCC3)nc2n1CC(=O)Nc1ccc(C(F)(F)F)cc1 [Example 136, 2-(6-(1-(3,6-difluoro-2-hydroxybenzoyl)piperidin-4-yl)-2-(3,6-dihydro-2H-pyran-4-yl)-5-methyl-7-oxo-[1,2,4]triazolo[1,5-a]pyrimidin-4(7H)-yl)-N-(4-(trifluoromethyl)phenyl)acetamide]	0.5	> 10	0.02
CCc1c(C2CCN(C(C)=O)CC2)c(=O)n2nc(C3=CCCCO3)nc2n1CC(=O)Nc1ccc(C(F)(F)F)cc1 [Example 138, 2-(6-(1-acetylpiperidin-4-yl)-2-(3,4-dihydro-2H-pyran-6-yl)-5-ethyl-7-oxo-[1,2,4]triazolo[1,5-a]pyrimidin-4(7H)-yl)-N-(4-(trifluoromethyl)phenyl)acetamide]	1	> 10	0.08

More lines, now with the values ahead:

GI50 (SW48 cells) [µM]	GI50 (DLD1-WRN-KO cells) [µM]	IC50 [1] [µM]	SMILES
6	> 10	0.6	CC(=O)N1CCN(c2c(C)n(CC(=O)Nc3ccc(C(F)(F)F)cc3)c3nc(C4=CCN(CC(F)F)CC4)nn3c2=O)CC1 [Example 119, 2-(6-(4-acetylpiperazin-1-yl)-2-(1-(2,2-difluoroethyl)-1,2,3,6-tetrahydropyridin-4-yl)-5-methyl-7-oxo-[1,2,4]triazolo[1,5-a]pyrimidin-4(7H)-yl)-N-(4-(trifluoromethyl)phenyl)acetamide]
6	> 10	0.6	COCC1=CCN(c2nc3n(CC(=O)Nc4ccc(C(F)(F)F)cc4)c(C)c(N4CCN(C(C)=O)CC4)c(=O)n3n2)CC1 [Example 120, 2-(6-(4-acetylpiperazin-1-yl)-2-(4-(methoxymethyl)-3,6-dihydropyridin-1(2H)-yl)-5-methyl-7-oxo-[1,2,4]triazolo[1,5-a]pyrimidin-4(7H)-yl)-N-(4-(trifluoromethyl)phenyl)acetamide]
5	> 10	0.7	CC(=O)N1CCN(c2c(C)n(CC(=O)Nc3ccc(C(F)(F)F)cc3)c3nc(N4CC=CCC4)nn3c2=O)CC1 [Example 121, 2-(6-(4-acetylpiperazin-1-yl)-2-(3,6-dihydropyridin-1(2H)-yl)-5-methyl-7-oxo-[1,2,4]triazolo[1,5-a]pyrimidin-4(7H)-yl)-N-(4-(trifluoromethyl)phenyl)acetamide]
4	> 10	0.7	CC(=O)N1CCN(c2c(C)n(CC(=O)Nc3ccc(C(F)(F)F)cc3)c3nc(-c4ccc(F)cc4)nn3c2=O)CC1 [Example 124, 2-(6-(4-acetylpiperazin-1-yl)-2-(4-fluorophenyl)-5-methyl-7-oxo-[1,2,4]triazolo[1,5-a]pyrimidin-4(7H)-yl)-N-(4-(trifluoromethyl)phenyl) acetamide]
4	> 10	0.8	CC(=O)N1CCN(c2c(C)n(CC(=O)Nc3ccc(C(F)(F)F)cc3)c3nc(C4=CCCOC4)nn3c2=O)CC1 [Example 126, 2-(6-(4-acetylpiperazin-1-yl)-2-(5,6-dihydro-2H-pyran-3-yl)-5-methyl-7-oxo-[1,2,4]triazolo[1,5-a]pyrimidin-4(7H)-yl)-N-(4-(trifluoromethyl)phenyl)acetamide]
> 10	7	0.02	CC(=O)N1CCN(c2c(C)n(CC(=O)Nc3ccc(S(F)(F)(F)(F)F)cc3)c3nc(C4=CCCCO4)nn3c2=O)CC1 [Example 127, 2-(6-(4-acetylpiperazin-1-yl)-2-(3,4-dihydro-2H-pyran-6-yl)-5-methyl-7-oxo-[1,2,4]triazolo[1,5-a]pyrimidin-4(7H)-yl)-N-(4-(pentafluoro-16-sulfaneyl)phenyl)acetamide]
5	> 10	0.8	CC(=O)N1CCN(c2c(C)n(CC(=O)Nc3ccc(Cl)c4c3CCC4)c3nc(C4=CCOCC4)nn3c2=O)CC1 [Example 129, 2-(6-(4-acetylpiperazin-1-yl)-2-(3,6-dihydro-2H-pyran-4-yl)-5-methyl-7-oxo-[1,2,4]triazolo[1,5-a]pyrimidin-4(7H)-yl)-N-(7-chloro-2,3-dihydro-1H-inden-4-yl)acetamide]
6	> 10	1	CCON1CCN(c2nc3n(CC(=O)Nc4ccc(C(F)(F)F)cc4)c(C)c(N4CCN(C(C)=O)CC4)c(=O)n3n2)CC1 [Example 131, 2-(6-(4-acetylpiperazin-1-yl)-2-(4-ethoxypiperazin-1-yl)-5-methyl-7-oxo-[1,2,4]triazolo[1,5-a]pyrimidin-4(7H)-yl)-N-(4-(trifluoromethyl)phenyl)acetamide]
6	> 10	2	COCC1CCN(c2nc3n(CC(=O)Nc4ccc(C(F)(F)F)cc4)c(C)c(N4CCN(C(C)=O)CC4)c(=O)n3n2)C1 (stereo not drawn) [Example 133, 2-(6-(4-acetylpiperazin-1-yl)-2-(3-(methoxymethyl)pyrrolidin-1-yl)-5-methyl-7-oxo-[1,2,4]triazolo[1,5-a]pyrimidin-4(7H)-yl)-N-(4-(trifluoromethyl)phenyl)acetamide]
5	> 10	4	CC(=O)N1CCN(c2c(C)n(CC(=O)Nc3ccc(C(F)(F)F)cc3)c3nc(C4=CCCO4)nn3c2=O)CC1 [Example 134, 2-(6-(4-acetylpiperazin-1-yl)-2-(4,5-dihydrofuran-2-yl)-5-methyl-7-oxo-[1,2,4]triazolo[1,5-a]pyrimidin-4(7H)-yl)-N-(4-(trifluoromethyl)phenyl)acetamide]
0.3	> 10	0.05	Cc1c(C2CCN(C(=O)c3c(F)ccc(F)c3O)CC2)c(=O)n2nc(C3=CCCCO3)nc2n1CC(=O)Nc1ccc(C(F)(F)F)cc1 [Example 137, 2-(6-(1-(3,6-difluoro-2-hydroxybenzoyl)piperidin-4-yl)-2-(3,4-dihydro-2H-pyran-6-yl)-5-methyl-7-oxo-[1,2,4]triazolo[1,5-a]pyrimidin-4(7H)-yl)-N-(4-(trifluoromethyl)phenyl) acetamide]
